From ChEMBL document CHEMBL1201862, “PubChem BioAssay data set” (2004)
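How tested: cells in 96-well plates exposed to compound for 48 hours at five concentrations. GI50 is the concentration that inhibits growth by half.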 The source made the active and inactive calls. Rule as the data show it: active = GI50 up to about 1.1 µM and inactive = higher.

Legend:
Assay in all cases: DTP human tumour cell line panel, 48 h
SNB-75 = system: SNB-75
HOP-92 = system: HOP-92
OVCAR-8 = system: OVCAR-8
A549 = system: A549
SK-MEL-28 = system: SK-MEL-28
IGROV-1 = system: IGROV-1
MDA-MB-231 = system: MDA-MB-231
SN12C = system: SN12C
SR = system: SR
HT-29 = system: HT-29
KM12 = system: KM12
NCI/ADR-RES = system: NCI/ADR-RES
SF-539 = system: SF-539
M14 = system: M14
MDA-MB-435 = system: MDA-MB-435
SNB-19 = system: SNB-19
TK-10 = system: TK-10
SW-620 = system: SW-620
MOLT-4 = system: MOLT-4
NCI-H23 = system: NCI-H23

Measured: GI50

CNC(=O)CNC(=O)C(Cc1ccc(NC(=O)CCCCC(C)=O)cc1)NC(=O)C(CCC(=O)OCc1ccccc1)NC(=O)OC(C)(C)C (stereo not drawn)
inactive: SNB-75 > 100 µM | HOP-92 > 100 µM | OVCAR-8 > 100 µM | A549 > 100 µM | SK-MEL-28 > 100 µM | IGROV-1 > 100 µM | MDA-MB-231 > 100 µM | SN12C > 100 µM | SR > 100 µM | HT-29 > 100 µM | KM12 > 100 µM | NCI/ADR-RES > 100 µM | SF-539 > 100 µM | M14 > 100 µM | MDA-MB-435 > 100 µM | SNB-19 > 100 µM | TK-10 > 100 µM | SW-620 > 100 µM | MOLT-4 > 100 µM | NCI-H23 > 100 µM

CCC1(CC)C(=O)CC[C@@]2(C)C1=CC[C@H]1[C@@H]3CC[C@H](O)[C@@]3(C)CC[C@@H]12
inactive: SNB-75 35.6 µM | HOP-92 37.5 µM | OVCAR-8 23.5 µM | A549 13.5 µM | SK-MEL-28 > 100 µM | IGROV-1 37.8 µM | MDA-MB-231 47.9 µM | SN12C 16.7 µM | SR 15.4 µM | HT-29 15 µM | KM12 32.1 µM | NCI/ADR-RES 43.2 µM | SF-539 29.2 µM | M14 43.4 µM | MDA-MB-435 61 µM | SNB-19 24 µM | TK-10 19.9 µM | SW-620 19.1 µM | MOLT-4 25.6 µM | NCI-H23 48.9 µM

O=C(NNC(=S)Nc1ccc(Br)cc1)c1cc(-c2ccccc2)nc2ccccc12
inactive: SNB-75 29.2 µM | HOP-92 20 µM | OVCAR-8 23.1 µM | A549 21 µM | SK-MEL-28 21.1 µM | IGROV-1 37.8 µM | MDA-MB-231 18.6 µM | SN12C 19.1 µM | SR 20.4 µM | HT-29 32.1 µM | KM12 29.9 µM | NCI/ADR-RES 18.6 µM | SF-539 16.6 µM | M14 17 µM | MDA-MB-435 17.1 µM | SNB-19 27.2 µM | TK-10 14.9 µM | SW-620 21.2 µM | MOLT-4 22.1 µM | NCI-H23 23.6 µM

O=S1(=O)OCCOS(=O)(=O)C1(F)Cc1ccccc1
inactive: SNB-75 > 100 µM | HOP-92 > 100 µM | OVCAR-8 > 100 µM | A549 > 100 µM | SK-MEL-28 > 100 µM | IGROV-1 > 100 µM | MDA-MB-231 > 100 µM | SN12C > 100 µM | SR > 100 µM | HT-29 > 100 µM | NCI/ADR-RES > 100 µM | SF-539 > 100 µM | M14 > 100 µM | MDA-MB-435 > 100 µM | SNB-19 > 100 µM | TK-10 > 100 µM | SW-620 > 100 µM | MOLT-4 > 100 µM | NCI-H23 > 100 µM

O=C(c1ccccc1)c1ccc(N2C(=O)/C(=C/Cc3ccco3)N=C2c2ccccc2)c(N2C(=O)/C(=C/Cc3ccco3)N=C2c2ccccc2)c1
inactive: SNB-75 28.1 µM | HOP-92 97.1 µM | OVCAR-8 29.3 µM | A549 35.8 µM | SK-MEL-28 > 100 µM | IGROV-1 39.2 µM | MDA-MB-231 37.9 µM | SN12C 71.6 µM | SR 28.6 µM | HT-29 43.4 µM | KM12 28.4 µM | NCI/ADR-RES 33.8 µM | SF-539 16.2 µM | M14 39.9 µM | MDA-MB-435 29.2 µM | SNB-19 47.4 µM | TK-10 55.8 µM | SW-620 39.8 µM | MOLT-4 18.8 µM
